Measured values reported in patent US20170327471A1, “Aryl sulphide and aryl sulphoxide derivatives having C-C-attached uracils as pesticides” (BAYER CROPSCIENCE AKTIENGESELLSCHAFT, priority 2014, published 2017).
Like-named read-outs stand apart in the source and are kept apart here.

How the values were obtained:
Boophilus microplus = Boophilus microplus injection test; assay type: in vivo; settings: application rate, injection into engorged adult female cattle ticks, after 7 days
Method: 1. Boophilus microplus—Injection Test Solvent: dimethyl sulphoxide
To produce a suitable preparation of active compound, 10 mg of active compound are mixed with 0.5 ml of solvent and the concentrate is diluted with solvent to the desired concentration.
1 μl of the active compound solution is injected into the abdomen of 5 engorged adult female cattle ticks (Boophilus microplus). The animals are transferred into dishes and kept in a climate-controlled room.
Efficacy is assessed after 7 days by laying of fertile eggs. Eggs which are not visibly fertile are stored in a climate-controlled cabinet until the larvae hatch after about 42 days. An efficacy of 100% means that none of the ticks has laid any fertile eggs; 0% means that all the eggs are fertile.

Panonychus ulmi = Panonychus ulmi spray test; assay type: in vivo; settings: application rate 20 ppm, after 14 days, plum trees
Method: 8. Panonychus ulmi—Spray Test Solvent: 7 parts by weight of dimethylformamide Emulsifier: alkylaryl polyglycol ether To produce a suitable preparation of active compound, 1 part by weight of active compound is dissolved in the parts by weight of solvent stated and filled with water containing an emulsifier concentration of 1000 ppm until the desired concentration is reached. To prepare further test concentrations, the mixture is diluted with emulsifier-containing water. If the addition of ammonium salts and/or penetrants (rapeseed oil methyl ester) is required, these are, after dilution of the finished preparation solution, added using a pipette, at a concentration of in each case 1000 ppm. Plum trees (Prunus domestica), infested by a mixed population of the European red mite (Panonychus ulmi) are treated by spraying with the active compound preparation of the desired concentration. After 14 days, the kill in % is determined. 100% means that all spider mites have been killed; 0% means that none of the spider mites have been killed.

Tetranychus urticae [1] = assay: Tetranychus urticae drench test, OP-resistant; assay type: in vivo; settings: application rate 4 ppm, after 14 days, bean plants in soil
Method: 6. Tetranychus urticae—Drench Test, OP-Resistant Solvent: 7 parts by weight of dimethylformamide Emulsifier: 2 parts by weight of alkylaryl polyglycol ether
To produce a suitable preparation of active compound, 1 part by weight of active compound is mixed with the stated amounts of solvent and emulsifier, and the concentrate is diluted with water to the desired concentration, where the volume of soil to be drenched has to be taken into account. Here, it has to be made sure that a concentration of 40 ppm of emulsifier in the soil is not exceeded. To produce further test concentrations, the mixture is diluted with water.
Bean plants (Phaseolus vulgaris) in pots filled with soil, which plants are heavily infested by all stages of the greenhouse red spider mite (Tetranychus urticae), are watered with an active compound preparation of the desired concentration.
After 14 days, the efficacy in % is assessed. 100% means that all spider mites have been killed; 0% means that none of the spider mites have been killed.

Meloidogyne incognita [2] = assay: Meloidogyne incognita test (sand, lettuce, solvent acetone); assay type: in vivo; settings: application rate 20 ppm, after 14 days, lettuce in sand
Method: 2. Meloidogyne incognita Test Solvent: 125.0 parts by weight of acetone To produce a suitable preparation of active compound, 1 part by weight of active compound is mixed with the stated amount of solvent and the concentrate is diluted with water to the desired concentration. Vessels are filled with sand, active compound solution, an egg/larvae suspension of the southern root-knot nematode (Meloidogyne incognita) and lettuce seeds. The lettuce seeds germinate and the plants develop. The galls develop on the roots. After 14 days, the nematicidal efficacy in % is determined by the formation of galls. 100% means that no galls were found; 0% means that the number of galls on the treated plants corresponds to the untreated control.

Tetranychus urticae [3] = assay: Tetranychus urticae spray test, OP-resistant (bean leaf discs); assay type: in vivo; settings: application rate 500 g/ha, after 6 days
Method: 4. Tetranychus urticae—Spray Test, OP-Resistant Solvent: 78.0 parts by weight of acetone • • 1.5 parts by weight of dimethylformamide Emulsifier: alkylaryl polyglycol ether
To produce a suitable preparation of active compound, 1 part by weight of active compound is dissolved using the stated parts by weight of solvent and made up with water containing an emulsifier concentration of 1000 ppm until the desired concentration is attained. To produce further test concentrations, the preparation is diluted with emulsifier-containing water.
Discs of bean leaves (Phaseolus vulgaris) infested with all stages of the greenhouse red spider mite (Tetranychus urticae) are sprayed with an active compound preparation of the desired concentration.
After 6 days, the efficacy in % is determined. 100% means that all the spider mites have been killed; 0% means that none of the spider mites have been killed.

Meloidogyne incognita [4] = assay: Meloidogyne incognita test (soil drench, lettuce); assay type: in vivo; settings: application rate 8 ppm, after 21 days, lettuce in soil (loamy sand)
Method: 7. Meloidogyne incognita—Test Solvent: 7 parts by weight of dimethylformamide Emulsifier: 2.5 parts by weight of alkylaryl polyglycol ether To produce a suitable preparation of active compound, 1 part by weight of active compound is mixed with the stated amounts of solvent and emulsifier, and the concentrate is diluted with water to the desired concentration, where the volume of soil to be drenched has to be taken into account. Here, it has to be made sure that a concentration of 20 ppm of emulsifier in the soil is not exceeded. To produce further test concentrations, the mixture is diluted with water. Pots filled with soil (loamy sand) are watered with the active compound solution. An egg/larvae suspension of the southern root-knot nematode (Meloidogyne incognita) is added, lettuce seeds are scattered on the surface of the soil and covered with quartz sand. The lettuce seeds germinate and the plants develop. The galls develop on the roots. After 21 days, the nematicidal efficacy in % is determined by the formation of galls. 100% means that no galls were found; 0% means that the number of galls on the treated plants corresponds to that of the untreated control.

Tetranychus urticae [5] = assay: Tetranychus urticae spray test, OP-resistant (bean plants); assay type: in vivo; settings: application rate 20 ppm, after 7 days
Method: 5. Tetranychus urticae-Spray Test, OP-Resistant Solvent: 7 parts by weight of dimethylformamide Emulsifier: alkylaryl polyglycol ether
To produce a suitable preparation of active compound, 1 part by weight of active compound is dissolved using the stated parts by weight of solvent and made up with water containing an emulsifier concentration of 1000 ppm until the desired concentration is attained. To produce further test concentrations, the preparation is diluted with emulsifier-containing water. If the addition of ammonium salts or/and penetrants is required, these are each added in a concentration of 1000 ppm to the preparation solution.
Bean plants (Phaseolus vulgaris) heavily infested by all stages of the greenhouse red spider mite (Tetranychus urticae) are sprayed with an active compound preparation of the desired concentration.
After 7 days, the efficacy in % is determined. 100% means that all the spider mites have been killed; 0% means that none of the spider mites have been killed.

[6] = logP by reversed-phase HPLC (EEC Directive 79/831 Annex V.A8); assay type: physicochemical; settings: reversed-phase C18 HPLC column
Method: The logP values were determined in accordance with EEC Directive 79/831 Annex V.A8 by HPLC (High Performance Liquid Chromatography) using reversed-phase columns (C 18) by the following methods:
^[a] The LC-MS determination in the acidic range was effected at pH 2.7 with 0.1% aqueous formic acid and acetonitrile (contains 0.1% formic acid) as eluents; linear gradient from 10% acetonitrile to 95% acetonitrile. Called logP (HCOOH) in the table.
^[b] LC-MS determination in the neutral range was effected at pH 7.8 with 0.001 molar aqueous ammonium hydrogencarbonate solution and acetonitrile as eluents; linear gradient from 10% acetonitrile to 95% acetonitrile. Called logP (neutral) in the table.
Calibration was effected with unbranched alkan-2-ones (having 3 to 16 carbon atoms) with known logP values (logP values determined on the basis of the retention times by linear interpolation between two successive alkanones).

Cc1cc(F)c(-c2cc(=O)n(C)c(=O)n2C)cc1[S+]([O-])CC(F)(F)F (stereo not drawn) [Example I-1, 6-{2-Fluoro-4-methyl-5-[(2,2,2-trifluoroethyl)sulphinyl]phenyl}-1,3-dimethylpyrimidine-2,4(1H,3H)-dione]
efficacy (no fertile eggs laid) (Boophilus microplus): 100%
efficacy (kill of spider mites) (Panonychus ulmi): 100%
efficacy (spider mites killed) (Tetranychus urticae [1]): 100%
nematicidal efficacy (formation of galls) (Meloidogyne incognita [2]): 100%
efficacy (spider mites killed) (Tetranychus urticae [3]): 100%
nematicidal efficacy (formation of galls) (Meloidogyne incognita [4]): 90%
efficacy (spider mites killed) (Tetranychus urticae [5]): 100%
chromatographic logP ([6]; acidic range, pH 2.7, 0.1% aqueous formic acid/acetonitrile, read-out: logP (HCOOH) = logP[a]): 1.77
chromatographic logP ([6]; neutral range, pH 7.8, 0.001 molar aqueous ammonium hydrogencarbonate/acetonitrile, read-out: logP (neutral) = logP[b]): 1.75
